In patent US12564609B2, “Hematopoietic stem cell engraftment with a combination of agents” (The Board of Trustees of the Leland Stanford Junior …, priority 2020, dated 2026):

Experiments:
donor HSC engraftment = test: Congenic hematopoietic cell transplantation, donor chimerism in peripheral blood; assay type: in vivo, B6 mice
From the text: Mice. C57BL/6 (B6) mice (H-2^b, Thy1.1, CD45.1/CD45.2) were recipients and B6 mice (H-2^b, Thy1.1, CD45.1) were donors for the congenic transplant experiments. BALB.B (H-2^b, Thy1.2, CD45.2) mice were used as recipients and B6 mice (H-2^b, Thy1.1, CD45.1) as donors for […] (allogeneic) transplant experiments. Recipients were >8 weeks old and donors were 8-12 weeks old at timepoint of transplantation. B6 (H-2^b, Thy1.1, CD45.2) mice were used for in vivo depletion studies. Mice were bred and maintained under pathogen free conditions at the Stanford University Research Animal Facility. All experiments were performed under a protocol approved by the Stanford Administrative Panel on Laboratory Animal Care.
In vivo administration of therapeutic agents and cytokines. Anti-mouse CD117 mAbs, clone ACK2 (BioXcell) and 2B8 (BioXcell), were injected retroorbital as a single dose of 500 μg following intraperitoneal administration of Diphenhydramine (Benadryl). Anti CD4 (clone GK1.5, BioXcell) and anti-CD8 (clone YTS169.4, BioXcell) were administered intraperitoneally at a dose of 100 μg in 100 μl phosphate-buffered saline (PBS). […] Before each injection, AZA was thawed for 10-15 min at room temperature (RT), resuspended in PBS and administered intraperitoneally in 100 μl. […]

[1] = test system: human Lin−CD34+CD38− cells; test: In vitro HSC culture, cell counting and live/dead viability assay (human); assay type: cell-based
Description: (§1) A. Schematic of treatment protocol. C57BL/6 mice were injected with three different doses of AZA (1.25, 2.5 and 5 mg/kg/d) for 3 days. 24 h after last AZA injection BM was analyzed for HSC-depletion and Ki67 intracellular protein expression. B. Overlay histogram of Ki67 intracellular protein expression in LT-HSC (gated from live, Lin^−Sca1^+c-Kit^+CD150^+CD48^− cells) in mice treated with AZA 1.25 mg/kg, 2.5 mg/kg and 5 mg/kg/d for 3 consecutive days. C. Mean fluorescence intensity (MFI) of Ki67 intracellular protein expression in LT-HSC, ST-HSC, MPP2, MPP3/4 and myeloid progenitors (MP). Data were pooled from 2 independent experiments and represent mean±SD (n=7). Statistics were calculated Mann-Whitney test (*P<0.05; **P<0.01; ***P<0.001). […] After 48 h % live/dead cells was assessed by using EarlyTox Live/Dead Assay Kit. E. Proliferation curves of FACS-sorted mouse Lin^−Sca1^+c-Kit^+CD48^− in the presence of indicated concentrations of AZA (left) and cell viability as assessed by % of Calcein AM positive cells after 48 h of cell culture (right). […] Statistics were calculated with Mann-Whitney test (*P<0.05; **P<0.01; ***P<0.001). F. Proliferation curves of FACS-sorted human Lin^−CD34^+CD38^− cells in the presence of indicated concentrations of AZA (left) and cell viability as assessed by % of Calcein AM positive cells after 48 h of cell culture (right). […]

[2] = test system: mouse Lin−Sca1+c-Kit+CD48− cells; test: In vitro HSC culture, cell counting and live/dead viability assay (mouse); assay type: cell-based
Description: as §1

[3] = AZA 0.1, 0.5 and 1 μg/ml at baseline and 24 h, 48 h culture with SCF and TPO
[4] = AZA concentrations 0.1 μg/ml, 48 h

## Nc1ncn([C@@H]2O[C@H](CO)[C@@H](O)[C@H]2O)c(=O)n1 [AZA, 5-Azacytidine]
Donor HSC engraftment; AZA 2.5 mg/kg for 5 days, 20×10^6 congenic WBM cells
  stable engraftment of donor WBM: does not enable stable engraftment
Donor HSC engraftment; single agent AZA 5 mg/kg for 5 days, congenic WBM cells
  myeloid donor chimerism: 10-15%
[1]; [3]
  number of cells in culture: reduced the number of cells in a dose dependent manner
[1]; [4]
  cell viability by Calcein AM: significant decrease in cell viability
[2]; [3]
  number of cells in culture: reduced the number of cells in a dose dependent manner
[2]; [4]
  cell viability by Calcein AM: significant decrease in cell viability
